Test results as given in US20260274833A1 (NiKang Therapeutics, Inc., priority 2022, published 2026).

These compounds were tested against T1, CDK2 (Homo sapiens, UniProt P24941) (assay: Phospho-RB measurement in OVCAR3 cells (HTRF phospho-RB cellular kit)). Details: inhibition of RB phosphorylation at S807/811 (HTRF), 24 h compound treatment.
T1 construct: endogenous in cells; host or cells: OVCAR3 cells
Assay type: cell-based
How it was run: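 IC50 came from a four-parameter logistic fit of the DMSO-normalized TR-FRET ratio (665/620 nm). That ratio reflects RB phosphorylation at S807/811, read with an HTRF antibody pair 4 h after adding lysate at room temperature.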

IC50 [nM]	SMILES
> 10000	CC(=O)N1CCN(S(=O)(=O)Nc2cccc(-c3nc(C(C)(C)C)sc3-c3ccnc(NC4CCN(S(C)(=O)=O)CC4)n3)c2F)CC1 [Example 88, 4-acetyl-N-(3-(2-(tert-butyl)-5-(2-((1-(methylsulfonyl)piperidin-4-yl)amino)-pyrimidin-4-yl)thiazol-4-yl)-2-fluoro-phenyl)-piperazine-1-sulfonamide]

Same assay, conditions: inhibition of RB phosphorylation at S807/811 (HTRF, TR-FRET ratio 665/620), 24 h compound treatment, 0.3 to 10,000 nM

IC50 [nM]	SMILES
939	CC(C)(C)c1nc(-c2cccc(NS(=O)(=O)N3Cc4cccc(Cc5ccccc5)c4C3)c2F)c(-c2ccnc(NC3CC4(C3)CS(=O)(=O)C4)n2)s1 [Example 232, 4-benzyl-N-(3-(2-(tert-butyl)-5-(2-((2,2-dioxido-2-thiaspiro[3.3]heptan-6-yl)amino)-pyrimidin-4-yl)thiazol-4-yl)-2-fluorophenyl)-isoindoline-2-sulfonamide]
32.7	CC1(c2nc(-c3cccc(NS(=O)(=O)N4CCc5ccc(C#N)cc54)c3F)c(-c3ccnc(NC4CC5(C4)CS(=O)(=O)C5)n3)s2)CCOCC1 [Example 5, 6-cyano-N-(3-(5-(2-((2,2-dioxido-2-thiaspiro-[3.3]heptan-6-yl)amino)-pyrimidin-4-yl)-2-(4-methyltetrahydro-2H-pyran-4-yl)thiazol-4-yl)-2-fluorophenyl) indoline-1-sulfonamide]
1240	CN(c1ccccc1)S(=O)(=O)Nc1cccc(-c2nc(C(C)(C)C)sc2-c2ccnc(NC3CCN(S(C)(=O)=O)CC3)n2)c1F [Example 100, N-(3-(2-(tert-butyl)-5-(2-((1-(methylsulfonyl)piperidin-4-yl)amino)-pyrimidin-4-yl)thiazol-4-yl)-2-fluorophenyl)(N-methyl-N-phenyl)-aminosulfonamide]
> 3840	CC(C)(C)c1nc(-c2cccc(NS(=O)(=O)N3CCC4(CC4)C3)c2F)c(-c2ccnc(NC3CC4(C3)CN(S(C)(=O)=O)C4)n2)s1 [Example 199, N-(3-(2-(tert-butyl)-5-(2-((2-(methylsulfonyl)-2-azaspiro [3.3]heptan-6-yl)amino)pyrimidin-4-yl)thiazol-4-yl)-2-fluorophenyl)-5-azaspiro [2.4]heptane-5-sulfonamide]
153	O=S1(=O)CC2(CC(Nc3nccc(-c4sc(N5C6CCC5CN(CC(F)(F)F)C6)nc4-c4cccc(NS(=O)(=O)N5Cc6cccc(OC(F)F)c6C5)c4F)n3)C2)C1 [Example 33, 4-(difluoromethoxy)-N-(3-(5-(2-((2,2-dioxido-2-thiaspiro [3.3]heptan-6-yl)amino)pyrimidin-4-yl)-2-(3-(2,2,2-trifluoroethyl)-3,8-diazabicyclo-[3.2.1]octan-8-yl)thiazol-4-yl)-2-fluorophenyl) isoindoline-2-sulfonamide]
15	CN1CC2CCC(C1)N2c1nc(-c2cccc(NS(=O)(=O)N3CCc4ccccc43)c2F)c(-c2ccnc(NC3CC4(C3)CS(=O)(=O)C4)n2)s1 [Example 17, N-(3-(5-(2-((2,2-dioxido-2-thiaspiro-[3.3]-heptan-6-yl)amino)pyrimidin-4-yl)-2-(3-methyl-3,8-diazabicyclo[3.2.1]-octan-8-yl)thiazol-4-yl)-2-fluorophenyl)-indoline-1-sulfonamide]
343	O=S1(=O)CC2(CC(Nc3nccc(-c4sc(C56CC(C5)C6)nc4-c4cccc(NS(=O)(=O)N5CCc6cc(Cl)ccc65)c4F)n3)C2)C1 [Example 47, N-(3-(2-(bicyclo [1.1.1]pentan-1-yl)-5-(2-((2,2-dioxido-2-thiaspiro[3.3]heptan-6-yl)amino)-pyrimidin-4-yl)thiazol-4-yl)-2-fluorophenyl)-5-chloroindoline-1-sulfonamide]

Second part, the compound before the results:

SMILES	IC50 [nM]
O=S1(=O)CC2(CC(Nc3nccc(-c4sc(C56CC(C5)C6)nc4-c4cccc(NS(=O)(=O)N5C6CCC5CC(F)(F)C6)c4F)n3)C2)C1 [Example 266, N-(3-(2-(bicyclo [1.1.1]pentan-1-yl)-5-(2-((2,2-dioxido-2-thiaspiro[3.3]heptan-6-yl)amino)-pyrimidin-4-yl)thiazol-4-yl)-2-fluorophenyl)-3,3-difluoro-8-azabicyclo-[3.2.1]octane-8-sulfonamide]	8470
CC(C)(C)c1nc(-c2cccc(NS(=O)(=O)N3CCNc4ccccc43)c2F)c(-c2ccnc(NC3CCN(S(C)(=O)=O)CC3)n2)s1 [Example 106, N-(3-(2-(tert-butyl)-5-(2-((1-(methylsulfonyl)piperidin-4-yl)amino)-pyrimidin-4-yl)thiazol-4-yl)-2-fluorophenyl)-3,4-dihydroquinoxaline-1(2H)-sulfonamide]	263
CC(C)(C)c1nc(-c2cccc(NS(=O)(=O)N3Cc4cccc(Oc5cccc(F)c5)c4C3)c2F)c(-c2ccnc(NC3CC4(C3)CS(=O)(=O)C4)n2)s1 [Example 214, N-(3-(2-(tert-butyl)-5-(2-((2,2-dioxido-2-thiaspiro[3.3]heptan-6-yl)amino)-pyrimidin-4-yl)thiazol-4-yl)-2-fluorophenyl)-4-(3-fluorophenoxy)-isoindoline-2-sulfonamide]	535
CC(C)(C)c1nc(-c2cccc(NS(=O)(=O)N3CCC4(CC4)C3)c2F)c(-c2ccnc(NC3CCN(S(=O)(=O)N4CCNCC4)CC3)n2)s1 [Example 175, N-(3-(2-(tert-butyl)-5-(2-((1-(piperazin-1-ylsulfonyl)piperidin-4-yl)amino)-pyrimidin-4-yl)thiazol-4-yl)-2-fluoro-phenyl)-5-azaspiro [2.4]heptane-5-sulfonamide]	943
CN(C)CCOc1ccc2c(c1)N(S(=O)(=O)Nc1cccc(-c3nc(C(C)(C)C)sc3-c3ccnc(NC4CCN(S(C)(=O)=O)CC4)n3)c1F)CC2 [Example 188, N-(3-(2-(tert-butyl)-5-(2-((1-(methylsulfonyl)-piperidin-4-yl)amino)-pyrimidin-4-yl)thiazol-4-yl)-2-fluoro-phenyl)-6-(2-(dimethylamino)-ethoxy)-indoline-1-sulfonamide]	1660
CC(C)(C)c1nc(-c2cccc(NS(=O)(=O)N3CCNc4ccccc4C3)c2F)c(-c2ccnc(NC3CCN(S(C)(=O)=O)CC3)n2)s1 [Example 102, N-(3-(2-(tert-butyl)-5-(2-((1-(methylsulfonyl)piperidin-4-yl)amino)-pyrimidin-4-yl)thiazol-4-yl)-2-fluorophenyl)-1,2,3,5-tetrahydro-4H-benzo[e] [1,4]diazepine-4-sulfonamide]	281
O=S1(=O)CC2(CC(Nc3nccc(-c4sc(C56CC(C5)C6)nc4-c4cccc(NS(=O)(=O)N5CCc6cc(C(F)(F)F)ccc65)c4F)n3)C2)C1 [Example 35, N-(3-(2-(bicyclo [1.1.1]pentan-1-yl)-5-(2-((2,2-dioxido-2-thiaspiro[3.3]heptan-6-yl)amino)-pyrimidin-4-yl)thiazol-4-yl)-2-fluorophenyl)-5-(trifluoromethyl)-indoline-1-sulfonamide]	1590
CC(C)(C)c1nc(-c2cccc(NS(=O)(=O)N3Cc4cccc(OCC#N)c4C3)c2F)c(-c2ccnc(NC3CCN(S(C)(=O)=O)CC3)n2)s1 [Example 247, N-(3-(2-(tert-butyl)-5-(2-((1-(methylsulfonyl)-piperidin-4-yl)amino)-pyrimidin-4-yl)thiazol-4-yl)-2-fluoro-phenyl)-4-(cyanomethoxy)-isoindoline-2-sulfonamide]	117
CC(C)(C)c1nc(-c2cccc(NS(=O)(=O)N3CCC4(CCC4)C3)c2F)c(-c2ccnc(NC3CC4(C3)CS(=O)(=O)C4)n2)s1 [Example 182, N-(3-(2-(tert-butyl)-5-(2-((2,2-dioxido-2-thiaspiro[3.3]heptan-6-yl)amino)-pyrimidin-4-yl)thiazol-4-yl)-2-fluoro-phenyl)-6-azaspiro[3.4] octane-6-sulfonamide]	1190
CS(=O)(=O)[C@H]1CC[C@H](Nc2nccc(-c3sc(N4C5CCC4CN(CC(F)(F)F)C5)nc3-c3cccc(NS(=O)(=O)N4CCc5ccc(C(F)(F)F)cc54)c3F)n2)CC1 [Example 296, N-(2-fluoro-3-(5-(2-(((1r,4r)-4-(methylsulfonyl)cyclohexyl)amino)-pyrimidin-4-yl)-2-(3-(2,2,2-trifluoroethyl)-3,8-diazabicyclo[3.2.1]-octan-8-yl)thiazol-4-yl)phenyl)-6-(trifluoromethyl) indoline-1-sulfonamide]	1190
CC(C)(C)c1nc(-c2cccc(NS(=O)(=O)N3Cc4cccc(F)c4C3)c2F)c(-c2ccnc(NC3CCN(S(C)(=O)=O)CC3)n2)s1 [Example 71, N-(3-(2-(tert-butyl)-5-(2-((1-(methylsulfonyl)-piperidin-4-yl)amino)-pyrimidin-4-yl)thiazol-4-yl)-2-fluoro-phenyl)-4-fluoroisoindoline-2-sulfonamide]	76
CS(=O)(=O)[C@H]1CC[C@H](Nc2nccc(-c3sc(N4C5CCC4CN(C4CC(F)(F)C4)C5)nc3-c3cccc(NS(=O)(=O)N4CCc5ccc(C(F)(F)F)cc54)c3F)n2)CC1 [Example 295, N-(3-(2-(3-(3,3-difluorocyclobutyl)-3,8-diazabicyclo[3.2.1]octan-8-yl)-5-(2-(((1r,4r)-4-(methylsulfonyl)cyclohexyl)-amino)pyrimidin-4-yl)thiazol-4-yl)-2-fluorophenyl)-6-(trifluoromethyl)-indoline-1-sulfonamide]	536
CN(C)Cc1cccc2c1CN(S(=O)(=O)Nc1cccc(-c3nc(C(C)(C)C)sc3-c3ccnc(NC4CC5(C4)CS(=O)(=O)C5)n3)c1F)C2 [Example 197, N-(3-(2-(tert-butyl)-5-(2-((2,2-dioxido-2-thiaspiro[3.3]heptan-6-yl)amino)-pyrimidin-4-yl)thiazol-4-yl)-2-fluoro-phenyl)-4-((dimethylamino)methyl)-isoindoline-2-sulfonamide]	1080
O=S1(=O)CC2(CC(Nc3nccc(-c4sc(C56CC(C5)C6)nc4-c4cccc(NS(=O)(=O)N5CCc6ccc(OC(F)(F)F)cc65)c4F)n3)C2)C1 [Example 36, N-(3-(2-(bicyclo [1.1.1]pentan-1-yl)-5-(2-((2,2-dioxido-2-thiaspiro [3.3]heptan-6-yl)amino)-pyrimidin-4-yl)thiazol-4-yl)-2-fluorophenyl)-6-(trifluoromethoxy) indoline-1-sulfonamide]	195
